Counter-ions that a name gives are not always drawn.
Experiment: in vitro
Details: rat, gh3-tre-luc cells

SMILES	CC50 at 24 h (AC50 (uM) modified / 1000) [µM]	other results
Cc1ccc2c(c1)C(=O)c1ccccc1C2=O [2-Methylanthraquinone]	> 90	
NCCCNCCSP(=O)(O)O [Amifostine]	> 50	
CCOc1ccc2nc(S(N)(=O)=O)sc2c1 [Ethoxzolamide]	> 50	
C(=C\c1ccccc1)/c1ccccc1 [trans-Stilbene]	> 100	
CN(C)CC/C=C1/c2ccccc2COc2ccc(CC(=O)O)cc21 [Olopatadine hydrochloride]	> 50	
CCC(O)c1ccccc1 (centres unmarked) [1-Phenyl-1-propanol]	> 50	
O=C1C[C@@H]2OCC=C3CN4CC[C@]56c7ccccc7N1[C@H]5[C@H]2[C@H]3C[C@H]46 [Strychnine]	> 50	
CC(C)[C@H]1CC[C@@H](C)CC1=O (stereo in doubt) [(2R,5R)-5-Methyl-2-(propan-2-yl)cyclohexanone]	> 90	
Nc1ncnc2c1ncn2[C@@H]1O[C@H](COP(=O)(O)OP(=O)(O)OP(=O)(O)O)[C@@H](O)[C@H]1O [Adenosine triphosphate]	> 50	
C=CC(C)(C)C [3,3-Dimethyl-1-butene]	> 90	
CC(C)=CCC[C@@](C)(O)[C@H]1CC=C(C)CC1 [Bisabolol]	> 50	
CNC(=O)[C@H](Cc1c[nH]c2ccccc12)NC(=O)[C@@H](CC(=O)NO)CC(C)C [Ilomastat]	1.28	
O=C(NCCc1c[nH]c2ccccc12)c1cccnc1 [Nicotredole]	> 50	
O=C(Cl)C(Cl)Cl [Dichloroacetyl chloride]		CC50 at 24 h (AC50 (uM) modified / 1000, Tox21_110001=Tox21_200778, viability, 1 nM T3 present, 24 h): > 90 µM
CNC[C@H](O)c1ccc(O)c(O)c1 [Epinephrine bitartrate]	> 90	
Clc1ccc(C(c2ccc(Cl)cc2)C(Cl)(Cl)Cl)cc1 [p,p'-DDT]		CC50 at 24 h (AC50 (uM) modified / 1000, Tox21_110001=Tox21_111076, viability, 1 nM T3 present, 24 h): 19.5 µM; CC50 at 24 h (AC50 (uM) modified / 1000, Tox21_110001=Tox21_201495, viability, 1 nM T3 present, 24 h): 44.8 µM; CC50 at 24 h (AC50 (uM) modified / 1000, Tox21_110001=Tox21_300067, viability, 1 nM T3 present, 24 h): 28.7 µM
Cc1c(C(=O)O)c(O)cc2c1C(=O)c1c(O)c(C3OC(CO)C(O)C(O)C3O)c(O)c(O)c1C2=O (centres unmarked) [Cochineal]	29.1	
CN(CCOc1ccc(CC2SC(=O)NC2=O)cc1)c1ccccn1 (centres unmarked) [Rosiglitazone maleate]	> 90	
CO[C@H]1C[C@@H]2CC[C@@H](C)[C@@](O)(O2)C(=O)C(=O)N2CCCC[C@H]2C(=O)O[C@H]([C@H](C)C[C@@H]2CC[C@@H](OC(=O)C(C)(CO)CO)[C@H](OC)C2)CC(=O)[C@H](C)/C=C(\C)[C@@H](O)[C@@H](OC)C(=O)[C@H](C)C[C@H](C)/C=C/C=C/C=C/1C [Temsirolimus]	> 50	
CC1(C)C(=O)N(Cl)C(=O)N1Cl [1,3-Dichloro-5,5-dimethylhydantoin]	> 90	
C[C@]12C=CC(=O)C=C1CC[C@H]1[C@@H]3C[C@@H](O)[C@](O)(C(=O)CO)[C@@]3(C)C[C@H](O)[C@@]12F [Triamcinolone]	> 90	
Cc1ccc([N+](=O)[O-])cc1C [1,2-Dimethyl-4-nitrobenzene]		CC50 at 24 h (AC50 (uM) modified / 1000, Tox21_110001=Tox21_201332, viability, 1 nM T3 present, 24 h): > 90 µM
COc1cc(CC(C)N)c(OC)cc1Br (centres unmarked) [Brolamfetamine hydrobromide]		CC50 at 24 h (AC50 (uM) modified / 1000, Tox21_110001=Tox21_113494, viability, 1 nM T3 present, 24 h): 25.6 µM
CC1=C(C(=O)Nc2ccccc2)S(=O)(=O)CCO1 [Oxycarboxin]	40.7	
CO/N=C(/C1=NOCCO1)c1ccccc1Oc1ncnc(Oc2ccccc2Cl)c1F [Fluoxastrobin]	32.7	
CCCCCCBr [1-Bromohexane]		CC50 at 24 h (AC50 (uM) modified / 1000, Tox21_110001=Tox21_202719, viability, 1 nM T3 present, 24 h): > 100 µM

SMILES	CC50 at 24 h (AC50 (uM) modified / 1000) [µM]	other results
CCCC=O [Butyraldehyde]	> 90	
COC(=O)CCCCC(=O)OC [Dimethyl adipate]	> 90	
COCCC#N [3-Methoxypropionitrile]	> 90	
BrCCCBr [1,3-Dibromopropane]		CC50 at 24 h (AC50 (uM) modified / 1000, Tox21_110001=Tox21_202716, viability, 1 nM T3 present, 24 h): > 100 µM
CN1CCN(Cc2cc(-c3ccc4[nH]c(=O)oc4c3)co2)[C@@H](c2ccc(F)cc2)C1 [AVE8488]	24.8	
COc1cc(C(=O)NCc2ccc(OCCN(C)C)cc2)cc(OC)c1OC [Trimethobenzamide hydrochloride]	> 20	
OC1OC[C@@H](O)[C@H](O)[C@H]1O (stereo partly drawn) [D-Xylose]	> 90	
O=c1cc[nH]c(=O)[nH]1 [Uracil]	> 90	
CC(C)(CCl)c1ccccc1 [Neophyl chloride]	> 90	
FC1(F)C(F)(F)C(F)(F)C2(F)C(F)(C1(F)F)C(F)(F)C(F)(F)C1(F)C(F)(F)C(F)(F)C(F)(F)C(F)(F)C12F (centres unmarked) [Tetracosafluorotetradecahydrophenanthrene]	> 80	
CC(C)=CCCC(C)CC=O (centres unmarked) [Citronellal]	> 90	
Brc1ccc(Oc2ccc(Br)cc2Br)c(Br)c1 [2,2'4,4'-Tetrabromodiphenyl ether]		CC50 at 24 h (AC50 (uM) modified / 1000, Tox21_110001=Tox21_200327, viability, 1 nM T3 present, 24 h): 83.3 µM
Cn1cnc2c(O)nc(N)nc21 [9-Methylguanine]	> 90	
CCC(=O)/C=C/c1ccc(OC)cc1 [1-(4-Methoxyphenyl)-1-pentene-3-one]	> 90	
Cc1cc(C)c(NC(=O)CN(CC(=O)O)CC(=O)O)c(C)c1Br [Mebrofenin]	> 50	
O=C=Nc1cccc(C(F)(F)F)c1 [3-(Trifluoromethyl)phenyl isocyanate]	49	
COc1ccc(C2C(=O)c3ccccc3C2=O)cc1 [Anisindione]	> 50	
S=C=Nc1ccccc1 [Phenyl isothiocyanate]	> 90	
C1CCCC1 [Cyclopentane]	> 90	
Cc1nc2sccn2c(=O)c1CCN1CCC(=C(c2ccc(F)cc2)c2ccc(F)cc2)CC1 [Ritanserin]	28.7	
CSCCC=O [3-(Methylthio)propanal]	> 100	
Nc1nc(N)c(N)c(N)n1 [2,4,5,6-Pyrimidinetetramine sulfate (1:1)]	> 90	
O=C(c1cc2ccccc2o1)N1CCN(Cc2ccccc2)CC1 [Befuraline]	> 50	
O=C1C=CCCC1 [2-Cyclohexen-1-one]	> 90	
C[C@@H]1C/C=C/C=C/C=C/C=C/[C@H](O[C@@H]2O[C@H](C)[C@@H](O)[C@H](N)[C@@H]2O)C[C@@H]2O[C@](O)(C[C@@H](O)C[C@H]3O[C@@H]3/C=C/C(=O)O1)C[C@H](O)[C@H]2C(=O)O [Natamycin]	> 50	
O=C(c1ccccc1)C(O)c1ccccc1 (centres unmarked) [Benzoin]	> 90	

SMILES	CC50 at 24 h (AC50 (uM) modified / 1000) [µM]	other results
CC(C)NCC(O)c1ccc(NS(C)(=O)=O)cc1 (centres unmarked) [Sotalol hydrochloride]	> 90	
Nc1ccccc1N [1,2-Phenylenediamine dihydrochloride]	> 90	
Oc1ccccc1F [2-Fluorophenol]	> 90	
O=C1OC(CN2CCOCC2)CN1/N=C/c1ccc([N+](=O)[O-])o1 (centres unmarked) [Furaltadone hydrochloride]	> 20	
CCCCCCCCCOS(=O)(=O)O [Sulfuric acid, monononyl ester, sodium salt]	> 90	
CN(C)CC/C=C1\c2ccccc2CSc2ccccc21 [Dothiepin hydrochloride]	6.1	
C=C(c1ccc(C(=O)O)cc1)c1cc2c(cc1C)C(C)(C)CCC2(C)C [Bexarotene]	16.1	
CN[C@@H]1[C@H](O)[C@H](NC)[C@H]2O[C@@]3(O)C(=O)C[C@@H](C)O[C@H]3O[C@@H]2[C@H]1O [Spectinomycin dihydrochloride]	> 20	
O=C(O)CC[N+](=O)[O-] [3-Nitropropionic acid]		CC50 at 24 h (AC50 (uM) modified / 1000, Tox21_110001=Tox21_202460, viability, 1 nM T3 present, 24 h): > 90 µM
CCCCCCCCCCCBr [1-Bromoundecane]	> 50	
CCO[Si](C)(CCCOCC1CO1)OCC (centres unmarked) [Diethoxy(methyl)[3-(oxiran-2-ylmethoxy)propyl]silane]	> 90	
CC1=Nc2ccccc2C1(C)C [2,3,3-Trimethylindolenine]	> 90	
Cc1cccc(Nc2ccncc2S(=O)(=O)NC(=O)NC(C)C)c1 [Torsemide]	> 20	
COc1ccc(N)cc1N [2,4-Diaminoanisole sulfate]	24.6	
CCCN(CCC)C(=O)SCC [EPTC]	> 100	
Oc1ccc(Sc2ccc(O)cc2)cc1 [4,4'-Thiodiphenol]	47.9	
CCOC(=O)/C=C/C(=O)OCC [Diethyl (2E)-but-2-enedioate]	> 90	
CC1(C)[C@@H]2CC[C@@]1(C)[C@H](OC(=O)CSC#N)C2 [Thanite]	> 50	
O=c1cc(-c2ccccc2)oc2cc(O)cc(O)c12 [Chrysin]	62.4	
C1CC2OC2CC1C1CO1 (centres unmarked) [4-Vinyl-1-cyclohexene dioxide]		CC50 at 24 h (AC50 (uM) modified / 1000, Tox21_110001=Tox21_201505, viability, 1 nM T3 present, 24 h): > 90 µM
c1ccc2c(c1)CCCC2 [Tetralin]	> 90	
CCOC(=O)CC [Ethyl propionate]	> 90	
CNc1cc(OC)c(C(=O)N[C@@H]2CCN(Cc3ccccc3)[C@@H]2C)cc1Cl (racemic) [Nemonapride]	> 50	
CCCCC1=NC2(CCCC2)C(=O)N1Cc1ccc(-c2ccccc2-c2nnn[nH]2)cc1 [Irbesartan]	> 50	
O=C(O)c1cc(Oc2ccc(C(F)(F)F)cc2Cl)ccc1[N+](=O)[O-] [Acifluorfen-sodium]	> 90	
CN1CCC(Nc2ncc3ncnc(Nc4ccc(F)c(Cl)c4)c3n2)CC1 [Falnidamol dihydrochloride]	11.7	

From article PMC6792352, “Limited Chemical Structural Diversity Found to Modulate Thyroid Hormone Receptor in the Tox21 Chemical Library” (Environmental Health Perspectives, 2019)
